Data from publication PMC9848300, “Discovery of novel enasidenib analogues targeting inhibition of mutant isocitrate dehydrogenase 2 as antileukaemic agents” (Journal of Enzyme Inhibition and Medicinal Chemistry, 2023).
Where two headings read alike, the source gives them in different places.

What was measured:
HL-60(TB) = test: NCI 60 antitumor screening (single dose / five doses); type: cell-based; conditions: Homo sapiens
K-562 = test: as above; type: cell-based; conditions: Homo sapiens
MOLT-4 = test: as above; type: cell-based; conditions: Homo sapiens
RPMI-8226 = test: as above; type: cell-based; conditions: Homo sapiens
EKVX = test: as above; type: cell-based; conditions: Homo sapiens, read-out: Growth inhibition percentage (GI %)
HCC-2998 = test: NCI 60 antitumor screening (single dose); type: cell-based; conditions: Homo sapiens; HCC-2998 (colon cancer), single dose 10 μM; read-out: Growth inhibition percentage (GI %)
Outline: (§1)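 Under the NCI Drug Evaluation Branch protocol, each compound is screened at one 10 μM concentration on the 60-line human tumour panel. Growth of treated cells is expressed as G%, and inhibition is reported as 100 − G%.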

HOP-62 = test: NCI 60 antitumor screening (single dose); type: cell-based; conditions: Homo sapiens; HOP-62 (non-small cell lung cancer), single dose 10 μM; read-out: Growth inhibition percentage (GI %)
Outline: as §1

NCI-H460 = test: NCI 60 antitumor screening (single dose); type: cell-based; conditions: Homo sapiens; NCI-H460 (non-small cell lung cancer), single dose 10 μM; read-out: Growth inhibition percentage (GI %)
Outline: as §1

OVCAR-8 = test: NCI 60 antitumor screening (single dose); type: cell-based; conditions: Homo sapiens
Outline: (§2)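 Values are GI% (100 − G%) from the NCI 60-line single-dose screen, compound at 10 μM.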

PC-3 = test: NCI 60 antitumor screening (single dose); type: cell-based; conditions: Homo sapiens
Outline: as §2

TK-10 = test: NCI 60 antitumor screening (single dose); type: cell-based; conditions: Homo sapiens
Outline: as §2

COLO 205 = test: NCI 60 antitumor screening (single dose / five doses); type: cell-based; conditions: Homo sapiens
HCT-15 = test: as above; type: cell-based; conditions: Homo sapiens
HT29 = test: as above; type: cell-based, human; conditions: Homo sapiens
SW-620 = test: as above; type: cell-based, human; conditions: Homo sapiens
SF-295 = test: as above; type: cell-based; conditions: Homo sapiens
LOX IMVI = test: as above; type: cell-based; conditions: Homo sapiens, read-out: Growth inhibition percentage (GI %)
SK-MEL-5 = test: as above; type: cell-based; conditions: Homo sapiens
UACC-257 = test: as above; type: cell-based; conditions: Homo sapiens
UACC-62 = test: as above; type: cell-based; conditions: Homo sapiens
IGROV1 = test: as above; type: cell-based; conditions: Homo sapiens
786-0 = test: as above; type: cell-based; conditions: Homo sapiens
ACHN = test: as above; type: cell-based; conditions: Homo sapiens, read-out: Growth inhibition percentage (GI %)
RXF 393 = test: as above; type: cell-based; conditions: Homo sapiens
UO-31 = test: as above; type: cell-based; conditions: Homo sapiens
MDA-MB-231/ATCC = test: as above; type: cell-based; conditions: Homo sapiens
BT-549 = test: as above; type: cell-based; conditions: Homo sapiens
MDA-MB-468 = test: as above; type: cell-based; conditions: Homo sapiens

## C(=N\Nc1nc(N/N=C/c2ccc3c(c2)OCO3)nc(N2CCCCC2)n1)/c1ccc2c(c1)OCO2 [compound 7k, 2,4-Bis[(E)-2-(2H-1,3-Benzodioxol-5-ylmethylidene)hydrazin-1-yl]-6-(piperidin-1-yl)-1,3,5-triazine]
HL-60(TB); HL-60(TB) (leukaemia), single dose 10 μM, read-out: Growth inhibition percentage (GI %)
  inhibition at 10 µM: 39.6%
K-562; K562, K-562 (leukaemia), single dose 10 μM, read-out: Growth inhibition percentage (GI %)
  inhibition at 10 µM: 58.9%
MOLT-4; MOLT-4 (leukaemia), single dose 10 μM, read-out: Growth inhibition percentage (GI %)
  inhibition at 10 µM: 43.7%
RPMI-8226; RPMI-8226 (leukaemia), single dose 10 μM, read-out: Growth inhibition percentage (GI %)
  inhibition at 10 µM: 43.8%
EKVX; EKVX (non-small cell lung cancer), single dose 10 μM
  inhibition at 10 µM: 6.27%
HCC-2998
  inhibition at 10 µM: 16.2%
HOP-62
  inhibition at 10 µM: -22.5%
NCI-H460
  inhibition at 10 µM: 9.41%
OVCAR-8; OVCAR-8 (ovarian cancer), single dose 10 μM, read-out: Growth inhibition percentage (GI %)
  inhibition at 10 µM: 9.89%
PC-3; PC-3 (prostate cancer), single dose 10 μM, read-out: Growth inhibition percentage (GI %)
  inhibition at 10 µM: 26.4%
TK-10; TK-10 (renal cancer), single dose 10 μM, read-out: Growth inhibition percentage (GI %)
  inhibition at 10 µM: -21%
COLO 205; COLO 205 (colon cancer), single dose 10 μM, read-out: Growth inhibition percentage (GI %)
  inhibition at 10 µM: 14.1%
HCT-15; HCT-15 (colon cancer), single dose 10 μM, read-out: Growth inhibition percentage (GI %)
  inhibition at 10 µM: 66.2%
HT29; HT-29, HT29 (colon cancer), single dose 10 μM, read-out: Growth inhibition percentage (GI %)
  inhibition at 10 µM: 61.8%
SW-620; SW-620 (colon cancer), single dose 10 μM, read-out: Growth inhibition percentage (GI %)
  inhibition at 10 µM: 17.6%
SF-295; SF-295 (CNS cancer), single dose 10 μM, read-out: Growth inhibition percentage (GI %)
  inhibition at 10 µM: 22.2%
LOX IMVI; LOX IMVI (melanoma), single dose 10 μM
  inhibition at 10 µM: 52.1%
SK-MEL-5; SK-MEL-5 (melanoma), single dose 10 μM, read-out: Growth inhibition percentage (GI %)
  inhibition at 10 µM: 3.15%
UACC-257; UACC-257 (melanoma), single dose 10 μM, read-out: Growth inhibition percentage (GI %)
  inhibition at 10 µM: -7.99%
UACC-62; UACC-62 (melanoma), single dose 10 μM, read-out: Growth inhibition percentage (GI %)
  inhibition at 10 µM: -2.37%
IGROV1; IGROV-1, IGROV1 (ovarian cancer), single dose 10 μM, read-out: Growth inhibition percentage (GI %)
  inhibition at 10 µM: 23.1%
786-0; 786-0, 786-0 (renal cancer), single dose 10 μM, read-out: Growth inhibition percentage (GI %)
  inhibition at 10 µM: 13.4%
ACHN; ACHN (renal cancer), single dose 10 μM
  inhibition at 10 µM: 5.09%
RXF 393; RXF 393 (renal cancer), single dose 10 μM, read-out: Growth inhibition percentage (GI %)
  inhibition at 10 µM: 20.3%
UO-31; UO-31 (renal cancer), single dose 10 μM, read-out: Growth inhibition percentage (GI %)
  inhibition at 10 µM: 25.6%
MDA-MB-231/ATCC; MDA-MB-231/ATCC (breast cancer), single dose 10 μM, read-out: Growth inhibition percentage (GI %)
  inhibition at 10 µM: 9.3%
BT-549; BT-549 (breast cancer), single dose 10 μM, read-out: Growth inhibition percentage (GI %)
  inhibition at 10 µM: -21.9%
MDA-MB-468; MDA-MB-468 (breast cancer), single dose 10 μM, read-out: Growth inhibition percentage (GI %)
  inhibition at 10 µM: 18.4%

## O=[N+]([O-])c1cc(/C=N/Nc2nc(N/N=C/c3ccc(Cl)c([N+](=O)[O-])c3)nc(N3CCOCC3)n2)ccc1Cl [compound 6i, 2,4-Bis[(E)-2-[(4-Chloro-3-nitrophenyl)methylidene]hydrazin-1-yl]-6-(morpholin-4-yl)-1,3,5-triazine]
HL-60(TB); HL-60, read-out: Growth inhibition percentage (GI %)
  inhibition at 10 µM: 13.7%
K-562; K562, read-out: Growth inhibition percentage (GI %)
  inhibition at 10 µM: 31.4%
MOLT-4; MOLT-4, read-out: Growth inhibition percentage (GI %)
  inhibition at 10 µM: 13.3%
RPMI-8226; RPMI-8226, read-out: Growth inhibition percentage (GI %)
  inhibition at 10 µM: 42.8%
EKVX; EKVX
  inhibition at 10 µM: 0.07%
HCC-2998
  inhibition at 10 µM: -5.78%
HOP-62
  inhibition at 10 µM: -5.02%
NCI-H460
  inhibition at 10 µM: -1.58%
OVCAR-8; OVCAR-8, read-out: Growth inhibition percentage (GI %)
  inhibition at 10 µM: 3.42%
PC-3; PC-3, read-out: Growth inhibition percentage (GI %)
  inhibition at 10 µM: -0.63%
TK-10; TK-10, read-out: Growth inhibition percentage (GI %)
  inhibition at 10 µM: -24.4%
COLO 205; COLO 205, read-out: Growth inhibition percentage (GI %)
  inhibition at 10 µM: -4.66%
HCT-15; HCT-15, read-out: Growth inhibition percentage (GI %)
  inhibition at 10 µM: 8.38%
HT29; HT-29, read-out: Growth inhibition percentage (GI %)
  inhibition at 10 µM: -2.29%
SW-620; SW-620, read-out: Growth inhibition percentage (GI %)
  inhibition at 10 µM: -6.94%
SF-295; SF-295, read-out: Growth inhibition percentage (GI %)
  inhibition at 10 µM: -7.07%
LOX IMVI; LOX IMVI
  inhibition at 10 µM: 9.76%
SK-MEL-5; SK-MEL-5, read-out: Growth inhibition percentage (GI %)
  inhibition at 10 µM: 3.31%
UACC-257; UACC-257, read-out: Growth inhibition percentage (GI %)
  inhibition at 10 µM: -2.78%
UACC-62; UACC-62, read-out: Growth inhibition percentage (GI %)
  inhibition at 10 µM: 9.59%
IGROV1; IGROV-1, read-out: Growth inhibition percentage (GI %)
  inhibition at 10 µM: 7.34%
786-0; 786-0, read-out: Growth inhibition percentage (GI %)
  inhibition at 10 µM: -8.76%
ACHN; ACHN
  inhibition at 10 µM: -2.76%
RXF 393; RXF 393, read-out: Growth inhibition percentage (GI %)
  inhibition at 10 µM: -20.7%
UO-31; UO-31, read-out: Growth inhibition percentage (GI %)
  inhibition at 10 µM: 22.3%
MDA-MB-231/ATCC; MDA-MB-231, read-out: Growth inhibition percentage (GI %)
  inhibition at 10 µM: 3.16%
BT-549; BT-549, read-out: Growth inhibition percentage (GI %)
  inhibition at 10 µM: -0.85%
MDA-MB-468; MDA-MB-468, read-out: Growth inhibition percentage (GI %)
  inhibition at 10 µM: 27.1%
